One assay has as its system OCI-Ly10. In words: CTG cell viability assay - OCI-Ly10. The following applies: Homo sapiens, 96 h; OCI-Ly10, 4 days. The assay is classed as cell-based. The protocol: Compound-mediated viability effect on OCI-Ly10 or SUDHL-2 was quantitatively determined using the CellTiter-Glo® Luminescent Cell Viability Assay kit from Promega (Catalog number G7570) following manufacturer's recommended procedures. Briefly, OCI-Ly10 or SUDHL-2 cells were seeded into 384 well plates (Grenier Bio-One, Catalog number 781080) with a density of 10,000 cells per well. Compounds were then added to the assay plate with final top concentration of 10 μM and 1:3 dilution series with total of 9 doses. The final DMSO concentration was normalized to 0.2%. The assay plates were incubated at 37° C. for 4 days under 5% CO2. Then the assay plate was equilibrated at room temperature for 10 minutes. To determine cell viability, 30 μL CellTiter Glo reagent was added to each well and the assay plate was centrifuged at 1000 rpm for 30 second, incubated at room temperature for 10 min, and analyzed by detecting the luminescence using a multimode plate reader (EnVision 2105, PerkinElmer). The data was then analyzed by software Prism 7.0 from GraphPad and the dose response curves were fit using a three-parameter logistic equation to calculate IC50.

The target in another assay is T1, IRAK4 (Homo sapiens, UniProt Q9NWZ3).
T1 construct: endogenous in cells; host or cells: OCI-Ly10
T1 sequence (Q9NWZ3 1-460): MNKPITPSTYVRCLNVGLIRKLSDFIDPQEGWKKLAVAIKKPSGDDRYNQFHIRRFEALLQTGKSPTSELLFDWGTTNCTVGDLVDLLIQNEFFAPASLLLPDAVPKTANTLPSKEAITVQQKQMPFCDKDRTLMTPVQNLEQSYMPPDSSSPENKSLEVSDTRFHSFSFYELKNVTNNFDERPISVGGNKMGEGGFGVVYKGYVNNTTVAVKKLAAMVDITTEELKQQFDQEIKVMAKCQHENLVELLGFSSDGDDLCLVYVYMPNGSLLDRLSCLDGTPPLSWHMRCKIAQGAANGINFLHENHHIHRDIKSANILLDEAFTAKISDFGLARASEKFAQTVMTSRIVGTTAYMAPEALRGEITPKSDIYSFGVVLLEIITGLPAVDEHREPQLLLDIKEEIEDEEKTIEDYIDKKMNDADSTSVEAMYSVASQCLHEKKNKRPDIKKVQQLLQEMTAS
As to the kind of experiment: IRAK4 MSD degradation in OCI-Ly10. The following applies: OCI-Ly10 cells, 24 hrs. The format is cell-based. Here is the method:
Degradation of IRAK4 in OCI-Ly10 was quantitatively measured using Meso Scale Discovery technology. OCI-Ly10 cells were seeded in 96-well plates (Corning 3799) with a density of 300,000 cells per well in 100 μL fresh media. Compounds were then added to the assay plates with a final top concentration of 1 to 10 μM in a 1:3 dilution series with total of 8 doses. The assay plates were then incubated for 4 to 24 hours at 37° C. under 5% CO2. The assay plates were then centrifuged for 5 minutes and the cell pellets were treated with 100 μL/well RIPA lysis buffer (Boston BioProducts BP-115D) with proteinase inhibitors. To prepare MSD assay plates (Meso Scale Discovery Catalog number L15XA-3), the plates were coated with 2 μg/mL capture antibody (mouse Anti-IRAK4 antibody [2H9], ab119942) in PBS, at 40 μL/well. The plates were then incubated overnight at 4° C., washed 3 times with 150 μL/well TBST buffer (Cell Signaling Technology, Catalog number 9997S) and blocked with 150 μL/well blocking buffer (Meso Scale Discovery Catalog number R93BA-4). Cell lysates were then added to MSD assay plates and the plates were incubated at room temperature for 1 hour. The plates were then washed 3 times with 150 μL/well TBST buffer and […] primary detection antibody (rabbit Anti-IRAK4 antibody [Y279], from Abcam. Catalog number ab32511, 1 μg/mL). The assay plates were then incubated at room temperature for 1 hour, washed 3 times with 150 μL/well TBST buffer and 25 μL/well secondary detection antibody, SULFO-TAG anti-rabbit antibody were added (anti rabbit antibody from Meso Scale Discovery, Catalog number R32AB-1, 1 μg/mL). The assay plates were then incubated at room temperature for 1 hour, washed 3 times with 150 μL/well TBST buffer, and 150 μL/well MSD reading buffer (Meso Scale Discovery catalog number R92TC-2) was added. The plates were then analyzed by a MSD reader (Meso Scale Discovery, Model Quick Plex SQ 120). The data was then analyzed by software Prism 7.0 from GraphPad and the dose-depended IRAK4 degradation were fit using a three-parameter logistic equation to calculate DC50.

Assay [1] concerns MYD88-mutant and wild type DLBCL PDX models. As to conditions: MYD88 MT model LY0257 with mutation in Aiolos; cited from earlier work.

pIC50: −log10 of the molar value. A value given as a limit tells only on which side of the number the result lay.

Broadly, the pIC50 is the negative decadic logarithm of the IC50, by convention in mol/L. The low end stands for a large IC50, the high end for a small IC50. The DC50 is the concentration giving 50% degradation. A low value points to a more potent degrader. In the assay on OCI-Ly10, `CC(C)(O)c1cc2nc([C@H]3CC[C@H](CN4CC5(CC(CCNc6cccc7c6C(=O)N([C@H]6CCC(=O)NC6=O)C7=O)C5)C4)CC3)sc2cc1NC(=O)c1cccc(C(F)(F)F)n1` (single isomer, unassigned) [Compound (S)-A] had a pIC50 of over 7.30. The compound also came in with a DC50 at IRAK4 of under 50 nM. The matching figures for `CC(C)(O)c1cc2nc([C@H]3CC[C@H](CN4CC5(CC(CCNc6cccc7c6C(=O)N([C@@H]6CCC(=O)NC6=O)C7=O)C5)C4)CC3)sc2cc1NC(=O)c1cccc(C(F)(F)F)n1` (single isomer, unassigned) [Compound (R)-A]: over 7.30 and under 50 nM. On to `Nc1cccc2c1CN(C1CCC(=O)NC1=O)C2=O` (centres unmarked) [lenalidomide], for which the “sensitivity of PDX model LY0257” value in assay [1] is recorded as “insensitive”.
